Values of other authors in US20230106535A1, “TECHNIQUES FOR DETERMINING CALCIMIMETIC DRUG ACTIVITY” (Fresenius Medical Care Holdings, Inc., priority 2021, published 2023).

Tests used:
PTH = conditions: n=343, Source E
[1] = system: iPTH, serum ionized Ca, phosphate
corrected serum calcium = conditions: clinical studies
[2] = healthy subjects; plasma concentration declines tri-exponentially
[3] = not given; remark: listed apart in the source
[4] = long term studies, within 12 weeks

Compound: C[C@@H](NCCCc1cccc(C(F)(F)F)c1)c1cccc2ccccc12 [cinacalcet]
- patients with PTH reduction >30% from baseline, clinical results (PTH): 57.7%
- patients with PTH reduction >50% from baseline, clinical results (PTH): 40.2%

Compound: CC(=O)N[C@H](CSSC[C@H](N)C(=O)O)C(=O)N[C@H](C)C(=O)N[C@H](CCCNC(=N)N)C(=O)N[C@H](CCCNC(=N)N)C(=O)N[C@H](CCCNC(=N)N)C(=O)N[C@H](C)C(=O)N[C@H](CCCNC(=N)N)C(N)=O [etelcalcetide]
- rate of conversion from SAPC to etelcalcetide relative to conversion of etelcalcetide to SAPC (faster): roughly 16 fold
- rate of conversion from SAPC to etelcalcetide relative to dialytic rate constant (slower): approximately 200 fold
- etelcalcetide dose cleared by HD (within 15 minutes, almost all cleared as intact etelcalcetide): approximately 70%
- highest changes in Ca concentration ([1]; HD patients, after a 60 mg administration): around 15%
- time to decline of iCa concentration ([1]; HD patients, after administration, dose-dependent): ≤ 10 h
- time to lowering of intact PTH (iPTH) ([1]; after a single dose): ≤ 30 min
- time to iCa plateau ([1]; after a single dose administration): 56 h
- iCa decline before reaching a plateau [1, 4]: around 10%
- phosphate decline before reaching a plateau [1, 4]: ~5%
- time to plateau in iPTH ([1]; post single dose administration): 1 h
- time to decrease in phosphate ([1]; post-administration): about 4 hours
- time after which iCa gradually decreases ([1]; single dose): about 18 hours
- time phosphate remains low ([1]; single dose): about 4 days
- time serum ionized Ca (iCa) remains stable ([1]; single dose): 8 h
- patients with at least one corrected calcium value below 8.3 mg/dl (corrected serum calcium): 79%
- patients with at least one corrected serum calcium value below 7 mg/dl (corrected serum calcium): around 7.6%
- terminal half-life [2]: around 20 hours
- time to steady state of etelcalcetide plasma concentration ([3]; clinical studies, multiple 2.5 mg or 5 mg administrations after every HD session): about 4 weeks
- biotransformation resulting in (reversible) formation of SAPC ([3]; human, in vivo): roughly 60%
- etelcalcetide undergoing biotransformation ([3]; human, in vivo): approximately 90%
- half-life ([3]; patients on intermittent HD): ~50 days
